Source: publication PMC11033320, “Activation of p53 signaling and regression of breast and prostate carcinoma cells by spirooxindole-benzimidazole small molecules” (Frontiers in Pharmacology, 2024)

Tests used:
HCT-116 = test: NCI anticancer screening, Colon Cancer HCT-116; type: cell-based; conditions: Homo sapiens; HCT-116, 10 μM; read-out: % Growth Inhibition (GI %)
Excerpt: (§1) The compound has been processed according to standard method NCI-60 Human Tumor Cell Lines Screen for organic compound at development therapeutic program (DTP). Requests for access to this national resource can be submitted online at: […]

SF-539 = test: NCI anticancer screening, CNS Cancer SF-539; type: cell-based; conditions: Homo sapiens; SF-539, 10 μM; read-out: % Growth Inhibition (GI %)
Excerpt: as §1

K-562 = test: NCI anticancer screening, Leukemia K-562; type: cell-based; conditions: Homo sapiens, K562; K-562, 10 μM; read-out: % Growth Inhibition (GI %)
Excerpt: as §1

HOP-92 = test: NCI anticancer screening, Non-Small Cell Lung Cancer HOP-92; type: cell-based; conditions: Homo sapiens; HOP-92, 10 μM; read-out: % Growth Inhibition (GI %)
Excerpt: as §1

EKVX = test: NCI anticancer screening, Non-Small Cell Lung Cancer EKVX; type: cell-based; conditions: Homo sapiens, read-out: % Growth Inhibition (GI %)
Excerpt: as §1

NCI-H522 = test: NCI anticancer screening, Non-Small Cell Lung Cancer NCI-H522; type: cell-based; conditions: Homo sapiens; NCI-H522, 10 μM; read-out: % Growth Inhibition (GI %)
Excerpt: as §1

ACHN = test: NCI anticancer screening, Renal Cancer ACHN; type: cell-based; conditions: Homo sapiens, read-out: % Growth Inhibition (GI %)
Excerpt: as §1

T-47D = test: NCI anticancer screening, Breast Cancer T-47D; type: cell-based; conditions: Homo sapiens, T47D, read-out: % Growth Inhibition (GI %)
Excerpt: as §1

A549/ATCC = test: NCI anticancer screening, Non-Small Cell Lung Cancer A549/ATCC; type: cell-based; conditions: Homo sapiens, read-out: % Growth Inhibition (GI %)
Excerpt: as §1

SF-295 = test: NCI anticancer screening, CNS Cancer SF-295; type: cell-based; conditions: Homo sapiens; SF-295, 10 μM; read-out: % Growth Inhibition (GI %)
Excerpt: as §1

CAKI-1 = test: NCI anticancer screening, Renal Cancer CAKI-1; type: cell-based; conditions: Homo sapiens; CAKI-1, 10 μM; read-out: % Growth Inhibition (GI %)
Excerpt: as §1

HCC-2998 = test: NCI anticancer screening, Colon Cancer HCC-2998; type: cell-based; conditions: Homo sapiens; HCC-2998, 10 μM; read-out: % Growth Inhibition (GI %)
Excerpt: as §1

NCI-H322M = test: NCI anticancer screening, Non-Small Cell Lung Cancer NCI-H322M; type: cell-based; conditions: Homo sapiens, read-out: % Growth Inhibition (GI %)
Excerpt: as §1

SN12C = test: NCI anticancer screening, Renal Cancer SN12C; type: cell-based; conditions: Homo sapiens, read-out: % Growth Inhibition (GI %)
Excerpt: as §1

SK-MEL-5 = test: NCI anticancer screening, Melanoma SK-MEL-5; type: cell-based; conditions: Homo sapiens; SK-MEL-5, 10 μM; read-out: % Growth Inhibition (GI %)
Excerpt: as §1

NCI/ADR-RES = test: NCI anticancer screening, Ovarian Cancer NCI/ADR-RES; type: cell-based; conditions: Homo sapiens, read-out: % Growth Inhibition (GI %)
Excerpt: as §1

PC-3 cells = test: MTT assay anticancer activity, PC-3; type: cell-based; conditions: Homo sapiens, PC-3, 5 µM, mean ± SEM, read-out: growth inhibition percentage of PC-3
Excerpt: MTT method was done as described above.

HOP-62 = test: NCI anticancer screening, Non-Small Cell Lung Cancer HOP-62; type: cell-based; conditions: Homo sapiens; HOP-62, 10 μM; read-out: % Growth Inhibition (GI %)
Excerpt: as §1

U251 = test: NCI anticancer screening, CNS Cancer U251; type: cell-based; conditions: Homo sapiens, U-251; U251, 10 μM; read-out: % Growth Inhibition (GI %)
Excerpt: as §1

SK-MEL-28 = test: NCI anticancer screening, Melanoma SK-MEL-28; type: cell-based; conditions: Homo sapiens; SK-MEL-28, 10 μM; read-out: % Growth Inhibition (GI %)
Excerpt: as §1

MALME-3M = test: NCI anticancer screening, Melanoma MALME-3M; type: cell-based; conditions: Homo sapiens, read-out: % Growth Inhibition (GI %)
Excerpt: as §1

OVCAR-8 = test: NCI anticancer screening, Ovarian Cancer OVCAR-8; type: cell-based; conditions: Homo sapiens; OVCAR-8, 10 μM; read-out: % Growth Inhibition (GI %)
Excerpt: as §1

SW-620 = test: NCI anticancer screening, Colon Cancer SW-620; type: cell-based; conditions: Homo sapiens; SW-620, 10 μM; read-out: % Growth Inhibition (GI %)
Excerpt: as §1

TK-10 = test: NCI anticancer screening, Renal Cancer TK-10; type: cell-based; conditions: Homo sapiens; TK-10, 10 μM; read-out: % Growth Inhibition (GI %)
Excerpt: as §1

MOLT-4 = test: NCI anticancer screening, Leukemia MOLT-4; type: cell-based; conditions: Homo sapiens; MOLT-4, 10 μM; read-out: % Growth Inhibition (GI %)
Excerpt: as §1

HS 578T = test: NCI anticancer screening, Breast Cancer HS 578T; type: cell-based; conditions: Homo sapiens, read-out: % Growth Inhibition (GI %)
Excerpt: as §1

LOX IMVI = test: NCI anticancer screening, Melanoma LOX IMVI; type: cell-based; conditions: Homo sapiens, read-out: % Growth Inhibition (GI %)
Excerpt: as §1

SR = test: NCI anticancer screening, Leukemia SR; type: cell-based; conditions: Homo sapiens, read-out: % Growth Inhibition (GI %)
Excerpt: as §1

HL-60(TB) = test: NCI anticancer screening, Leukemia HL-60(TB); type: cell-based; conditions: Homo sapiens, read-out: % Growth Inhibition (GI %)
Excerpt: as §1

SK-MEL-2 = test: NCI anticancer screening, Melanoma SK-MEL-2; type: cell-based; conditions: Homo sapiens; SK-MEL-2, 10 μM; read-out: % Growth Inhibition (GI %)
Excerpt: as §1

RXF 393 = test: NCI anticancer screening, Renal Cancer RXF 393; type: cell-based; conditions: Homo sapiens; RXF 393, 10 μM; read-out: % Growth Inhibition (GI %)
Excerpt: as §1

DU-145 = test: NCI anticancer screening, DU-145; type: cell-based; conditions: Homo sapiens; DU-145, 10 μM; read-out: % Growth Inhibition (GI %)
Excerpt: as §1

OVCAR-4 = test: NCI anticancer screening, Ovarian Cancer OVCAR-4; type: cell-based; conditions: Homo sapiens; OVCAR-4, 10 μM; read-out: % Growth Inhibition (GI %)
Excerpt: as §1

CCRF-CEM = test: NCI anticancer screening, Leukemia CCRF-CEM; type: cell-based; conditions: Homo sapiens, read-out: % Growth Inhibition (GI %)
Excerpt: as §1

SNB-19 = test: NCI anticancer screening, CNS Cancer SNB-19; type: cell-based; conditions: Homo sapiens; SNB-19, 10 μM; read-out: % Growth Inhibition (GI %)
Excerpt: as §1

786-0 = test: NCI anticancer screening, Renal Cancer 786-0; type: cell-based; conditions: Homo sapiens; 786-0, 10 μM; read-out: % Growth Inhibition (GI %)
Excerpt: as §1

SNB-75 = test: NCI anticancer screening, CNS Cancer SNB-75; type: cell-based; conditions: Homo sapiens; SNB-75, 10 μM; read-out: % Growth Inhibition (GI %)
Excerpt: as §1

Experimental for MDA-MB 231 cells: Anticancer effect of the above-mentioned compounds was assayed using three human cancer cell lines. Triple negative breast cancer cell line (MDA-MB 231) and prostate cancer cell line (PC3) were cultured in DMEM (Lonza, USA) supplemented with 10% FBS. All cancer cells (4x10^3 cells/well) were seeded in sterile 96-well plates. After 24h, serial concentrations of the tested compounds were incubated with three cancer cell lines for 72 h at 37 °C in 5% CO2 incubator. […] The half maximal inhibitory concentration (IC50) values were calculated using the Graphpad Instat software.

O=C(c1nc2ccccc2[nH]1)[C@H]1[C@H](c2ccc(F)cc2)C2CSCN2[C@]12C(=O)Nc1ccccc12 (stereo partly drawn) [Compound 6f, (3S,6′R)-6'-(1H-Benzo [d]imidazole-2-carbonyl)-7'-(4-fluorophenyl)-3′,6′,7′,7a′-tetrahydro-1′H-spiro [indoline-3.5′-pyrrolo [1,2-c]thiazol]-2-one]
inhibition at 10 µM (HCT-116): 92.9% | inhibition at 10 µM (SF-539): 97.7% | inhibition at 10 µM (K-562): 87.4% | inhibition at 10 µM (HOP-92): 112% | inhibition at 10 µM (EKVX): 93.8% | inhibition at 10 µM (NCI-H522): 79.5% | inhibition at 10 µM (ACHN): 94.2% | inhibition at 10 µM (T-47D): 84.1% | inhibition at 10 µM (A549/ATCC): 78.6% | inhibition at 10 µM (SF-295): 77.9% | inhibition at 10 µM (CAKI-1): 90% | inhibition at 10 µM (HCC-2998): 97% | inhibition at 10 µM (NCI-H322M): 90.4% | inhibition at 10 µM (SN12C): 91.1% | inhibition at 10 µM (SK-MEL-5): 94.7% | inhibition at 10 µM (NCI/ADR-RES): 99.4% | inhibition at 5 µM (PC-3 cells): 46 ± 0.833% | inhibition at 10 µM (HOP-62): 104% | inhibition at 10 µM (U251): 93.5% | IC50 (MDA-MB 231 cells): 4.41 ± 0.448 µM | inhibition (MDA-MB 231 cells; 5 µM): 44.9 ± 3.59% | inhibition at 10 µM (SK-MEL-28): 102% | inhibition at 10 µM (MALME-3M): 94.2% | inhibition at 10 µM (OVCAR-8): 94.7% | inhibition at 10 µM (SW-620): 91.1% | inhibition at 10 µM (TK-10): 101% | inhibition at 10 µM (MOLT-4): 83.6% | inhibition at 10 µM (HS 578T): 98% | inhibition at 10 µM (LOX IMVI): 94.8% | inhibition at 10 µM (SR): 81.3% | melting point: 233 to 235 °C | inhibition at 10 µM (HL-60(TB)): 93.1% | inhibition at 10 µM (SK-MEL-2): 102% | inhibition at 10 µM (RXF 393): 99.6% | inhibition at 10 µM (DU-145): 111% | inhibition at 10 µM (OVCAR-4): 83.2% | inhibition at 10 µM (CCRF-CEM): 98.2% | inhibition at 10 µM (SNB-19): 95.9% | inhibition at 10 µM (786-0): 99% | inhibition at 10 µM (SNB-75): 89.8%
